According to patent US10400008B2, “Modulators of the SRC-kinase activity for preventing or treating metastatic cancer” (Cancer Research Technology Limited, priority 2013, dated 2019):
Values joined by “and” are separate entries in the source; they are usually repeats but may differ in a detail not shown here. Identical values can stand only once. “Also recorded” adds a separate entry of the source.

Columns and labels:
MMP-9 = MMP-9 release from HT1080 cells (fluorescent AK411 kit); assay type: cell-based, human; settings: 6 h, peptide 1 nM
Description: (§1) FIG. 4: The S1 peptide inhibits EGF-stimulated migration and MMP-9 secretion in HT1080 cells. Quiescent HT1080 cells were used. In A, cells were left untreated or treated for 6 h with the indicated compounds. MMP-9 release was assayed as described in Methods. In B, cells were allowed to migrate for 6 h in Trans-well filters in the absence or presence of the indicated compounds. Migrated cells were stained and counted as reported in Methods. In A and B, data were expressed as relative increase. Mean and SEM is shown. n represents the number of experiments. In C, cells were wounded and then left unstimulated or stimulated for 6 h with the indicated compounds. Contrast-phase images are representative of 3 different experiments, each performed in duplicate.
(§2) BrdU incorporation, migration and wound healing analysis were done as described (3, 11). MMP-9 activity was assayed (12, 13), using the fluorescent AK411 kit (BIOMOL Res. Lab.).

HT1080 cells = test: Migration in Trans-well filters and wound healing of HT1080 cells; assay type: cell-based, human; settings: 6 h, peptide 1 nM
Description: as §1, §2

[1] = Body weight in the orthotopic PC-3 prostate cancer model
Description: (§3) Mice were weighed twice a week, and after 4 weeks, mice were sacrificed. Gross necropsy was performed to all animals at the end of the study, and all macroscopic signs were recorded. Volume of the prostate tumors was measured and prostate as well as prostate draining lymph nodes were collected for histology. The number of metastasis in lymph nodes was determined under microscope.
The animals were weighed twice a week. For the last 5 days of the study, the animals were observed daily to monitor the progression of disease. Appearance of any clinical signs was recorded on follow-up forms. Analgesic was given if needed.
(§4) At the end of the study, the animals were weighed and sacrificed with cervical dislocation under anesthesia. Necropsy was carried out in all animals. Macroscopic findings were recorded on the follow-up forms. Tissue samples from prostate with tumor and lymph nodes were collected for histology and number of metastases in lymph nodes was determined.
(§5) Statistical analysis was performed with R: A Language and Environment for Statistical Computing (version 2.14.2; R Development Core Team, Vienna, Austria). The mean and standard deviation of the body weights and the tumor volumes at sacrifice were determined. Normality of the distributions and homogeneity of variance were checked before further analyses. In case of violating these assumptions, either log transformation or other appropriate transformation (e.g. square root, reciprocal) was applied. If the assumptions were fulfilled as such or after transformation, one-way ANOVA was used to study if the values obtained between the groups were statistically different (with p<0.05). If differences were found, Tukey's HSD test was used for pairwise comparison between all groups. If the assumptions were not fulfilled even after the transformations described above, the non-parametric Kruskal-Wallis test followed by Mann-Whitney U-test were used.
We have studied the effects of Val201 on cell proliferation of the ER positive human prostate cancer cell line PC-3 in vitro and growth and metastatis in vivo in an orthotopic xenograft model. The proliferation effects were studied for 100 pM, 1 nM, 10 nM, 100 nM and 1 μM concentrations of VAL201 by measuring WST-1 values at days 3, 5, 7 and 9. Groups with vehicle and 1 μM gemcitabine as reference compound were included in the study. […] PC-3 cells in Matrigel were inoculated orthotopically into the prostate. Subcutaneous dosing was started at day 1 and continued daily for 28 days. The mice were weighed twice a week. Orthotopic tumors were measured by calliper and the prostate and the regional lymph nodes were harvested at sacrifice. Metastases in lymph nodes were determined from HE stained paraffin sections.

PC-3 cells = test: Orthotopic PC-3 prostate cancer model: tumor volume and lymph node metastases; assay type: in vivo, BALB/c nude mice; settings: for incidence of lymph node metastasis: vs vehicle; for Total tumor volumes during the study: animals 2.x (0.04 mg/kg by heads of Tables 2-3)
Description: Six week-old immunodeficient BALB/c nude mice were allocated to six 15-mice groups according to the body weight. PC-3 cells were inoculated orthotopically into prostates of the mice. Dosing (s.c.) was started at study day 1 and continued daily for 28 days.
as §3
The 0.01 mg/ml, 0.1 mg/ml, 1 mg/ml, 2.5 mg/ml and 5 mg/ml dosing suspensions were prepared from test peptide VAL001 by dilution to PBS. […] New dosing suspensions were prepared every week.
An animal model was used that can be effectively used for testing the effects of cancer drug candidates on the primary tumor growth in prostate microenvironment. In this model, human prostate cancer cells are inoculated into prostate of 4-5 week old male BALB/c nude mice. This mouse strain is immunodeficient, allowing rapid growth and spread of the human cancer cells. Within four weeks after the inoculation, animal develop large tumor to prostate and metastases to regional iliac and sacral lymph nodes. The animals are sacrificed at 4 weeks after inoculation, and their prostate with tumor and regional lymph nodes are collected for further histomorphometric analysis.
Male BALB/c nude mice (BALB/c OlaHsd-Foxn1^nu, obtained from Harlan, The Netherlands) were used for this study. The age of the animals was 6-7 weeks, and their body weights were approximately 16-23 g at the beginning of the study. The mice were specific pathogen free (SPF) and isolator-reared animals. Correct age and good clinical health were qualifications for the study. The acclimatization period for the mice was 4 days. Allocation to groups was performed by randomization procedure based on body weight. The animals were marked with ear marks. For orthotopic inoculations the mice were anesthetized with inhalation of isoflurane. Analgesia was provided before and 2 days after the orthotopic inoculation with buprenorphine: 0.1 mg/kg, s.c.
as §4, §5
The statistical analysis of incidence of lymph node metastases was done using Fisher's exact test as one-sided test in which the null hypothesis reflected the assumption that the treatment […].

endometriosis lesion = test: In-vivo model of endometriosis (K-ras transgenic donor tissue in wild-type animals), first study; parameters: species or system mice; settings: injected for 21 days, four treated animals
Description: In a first study, a total of 4 treatment and 5 control animals were generated in a novel in-vivo model of endometriosis (Research Horizons, University of Cambridge, 2009 Issue 8, GB 0715635.9) K-rasV12/Ah-Cre transgenic mice were crossed with Rosa26R mice to generate KrasV12+/−/Ah-Cre+/−/ROSA26R-LacZ+/− transgenic mice. The F1 offspring were inbred to generate F2 K-rasV12+/−/Ah-Cre+/+/ROSA26R-LacZ+/+ transgenic mice. The presence of the transgenes was determined by PCR using gene specific primers for K-ras, Cre and Rosa26R-LacZ. Tissue was collected from donor animals previously treated with hormones etc. and was divided between wild-type animals that were then injected with drug or vehicle for 21 days.

[2] = tested on: offspring from dosed females; settings: mouse, in vivo
Description: Offspring from dosed females were mated and checked for fertility to determine possible inheritable effects.

With Ac-PPPHPHARIK-NH2 [VAL001] the “EGF-stimulated MMP-9 secretion” value (MMP-9) was “inhibits”, the EGF-increased motility (HT1080 cells) was “inhibited at a similar extent” and the “Body weight at sacrifice relative to maximum weight” value ([1]; 0.004 mg/kg, mean) was 96.6. The “Body weight at sacrifice relative to maximum weight” value ([1]; 0.004 mg/kg, single animals) was 95.1 (2×) and 100.0 and 93.8 and 95.7 and 97.9 and 94.1 and 97.8 and 97.6 and 99.2, the “Body weight at sacrifice relative to maximum weight” value ([1]; 0.04 mg/kg, mean) was 96.1 and the “Body weight at sacrifice relative to maximum weight” value ([1]; 0.04 mg/kg, single animals) was 100.0 and 96.1 and 94.9 and 96.7 and 93.8 and 93.0 and 94.8 and 98.0 (2×) and 96.2. For the same substance, the “Body weight at sacrifice relative to maximum weight” value ([1]; 0.4 mg/kg, mean) was 97.6, the “Body weight at sacrifice relative to maximum weight” value ([1]; 0.4 mg/kg, single animals) was 98.2 and 91.1 and 96.6 and 90.7 and 100.0 (4×) and 99.5 and 99.6 and the “Body weight at sacrifice relative to maximum weight” value ([1]; 4 mg/kg, mean) was 95.3. The “Body weight at sacrifice relative to maximum weight” value ([1]; 4 mg/kg, single animals) was 100.0 and 90.8 and 86.2 and 95.7 and 96.8 and 95.5 and 98.2 and 98.4 and 98.0 and 93.3, the “inhibition of the development of lymph node metastases” value (PC-3 cells; 0.04 mg/kg s.c. daily 28 days) was 50% and the “incidence of lymph node metastasis” value (PC-3 cells; 0.04 mg/kg s.c. daily 28 days, Fisher's exact test p=0.01643) was “statistically significantly less; also recorded: inhibited statistically significantly”. For the same substance, the “inhibition of the development of lymph node metastases” value (PC-3 cells; 0.4 mg/kg s.c. daily 28 days) was 50%, the “incidence of lymph node metastasis” value (PC-3 cells; 0.4 mg/kg s.c. daily 28 days, Fisher's exact test p=0.03913) was “statistically significantly less; also recorded: inhibited statistically significantly” and the “decrease in tumor volume” value (PC-3 cells; 0.4 mg/kg s.c. daily 28 days, not statistically significant) was 35%. For the same substance, the “statistically significant effects on orthotopic tumor growth” value (PC-3 cells; 0.04-20 mg/kg s.c. daily 28 days) was “not observed”, the “tumor volumes between the treatment groups” value (PC-3 cells; 0.04-20 mg/kg s.c. daily 28 days, at sacrifice) was “no statistically significant differences” and the “Total tumor volumes during the study” value (PC-3 cells; day 5, single animals) was 22.3 and 11.5 and 21.5 and 16.9 and 26.7 and 29.3 (2×) and 27.8. For the same substance, the “Total tumor volumes during the study” value (PC-3 cells; day 7, single animals, in mm³ (unit assumed)) was 21.1 and 7.8 and 17.8 and 22.0 and 16.9 and 18.3 and 31.2 and 29.6, the “Total tumor volumes during the study” value (PC-3 cells; day 9, single animals, in mm³ (unit assumed)) was 28.2 and 18.2 and 32.4 and 21.3 and 29.6 and 57.8 and 76.4 and 34.4 and the “Total tumor volumes during the study” value (PC-3 cells; day 12, single animals, in mm³ (unit assumed)) was 51.3 and 20.1 and 39.6 and 56.1 and 24.6 and 57.0 and 116.3 and 70.3. For the same substance, the “Total tumor volumes during the study” value (PC-3 cells; day 14, single animals, in mm³ (unit assumed)) was 71.8 and 55.8 and 72.5 and 65.8 and 54.7 and 114.0 and 176.1 and 106.7, the “Total tumor volumes during the study” value (PC-3 cells; day 16, single animals, in mm³ (unit assumed)) was 87.7 and 70.9 and 140.3 and 85.4 and 62.6 and 167.3 and 183.2 and 112.1 and the “Total tumor volumes during the study” value (PC-3 cells; day 19, single animals, in mm³ (unit assumed)) was 202.0 and 163.3 and 186.2 and 140.9 and 104.4 and 181.7 and 332.0 and 227.3. The “Total tumor volumes during the study” value (PC-3 cells; day 21, single animals, in mm³ (unit assumed)) was 182.3 and 152.1 and 196.2 and 139.5 and 120.6 and 278.5 and 365.1 and 240.1, the “Total tumor volumes during the study” value (PC-3 cells; day 23, single animals, in mm³ (unit assumed)) was 158.4 and 95.0 and 289.5 and 181.8 and 127.8 and 278.8 and 386.3 and 323.8 and 345.6 and the “Total tumor volumes during the study” value (PC-3 cells; day 26, single animals, in mm³ (unit assumed)) was 277.2 and 233.9 and 254.0 and 243.7 and 239.4 and 381.2 and 618.5 and 328.7 and 518.9. For the same substance, the “Total tumor volumes during the study” value (PC-3 cells; day 29, single animals, in mm³ (unit assumed)) was 382.9 and 204.8 and 258.0 and 216.8 and 245.1 and 418.0 and 750.0 and 430.6 and 288.0, the “absence of lesion following treatment” value (endometriosis lesion) was “three showed complete absence of lesion” and the “fertility of offspring from dosed females” value [2] was “no abnormalities noted”.
